# Source: PubChem BioAssay AID1845228
# “And” between values parts separate entries of the source, which are not always exact repeats. Equal values may be shown once. Numbered stars: 1 amine (or outer) side, 2 acyl side, 3 side chain; on linkers, the order of the positions; unused ones are H or OH. Bridge positions count the residues as written; N and C are the ends. Square brackets hold non-standard residues; d marks the D form. Peptide text beside a SMILES is read from it. I, II: the chains in the order shown. Actinocin(9to1) = Cc1c2oc3c(C)ccc(C(=O)[*:1])c3nc-2c(C(=O)[*:2])c(N)c1=O; NMeV = CN[C@H](C(=O)O)C(C)C; Sar = CNCC(=O)O
# Conditions: pampa; 60.0 min; 50.0 µM
row,SMILES,Papp
1,CN1CCN(C(=O)Cc2c[nH]c3ncc(-c4ccccc4Oc4ccccc4)cc23)CC1,299 ×10⁻⁶ cm/s
2,Cc1cc(CNC(=O)c2ccc3c(c2)n(CC2CC2)c(=O)n3C2CCCCC2)on1,> 300 ×10⁻⁶ cm/s
3,N=c1c2c(-c3ccccc3)c(-c3ccccc3)n(CCc3ccccc3)c2ncn1[C@H](CO)Cc1ccccc1,< 1 ×10⁻⁶ cm/s
4,CC(=O)OC[C@@H]1O[C@@H](n2ccc(=O)[nH]c2=O)[C@H](OC(C)=O)[C@H]1OC(C)=O,< 1 ×10⁻⁶ cm/s
5,Cc1cccc(-c2csc3ncnc(Sc4nnnn4C)c23)c1,225 ×10⁻⁶ cm/s
6,CC1=C(C(=O)O)N2C(=O)C(NC(=O)C(N)C3=CCC=CC3)C2SC1 (centres undefined),< 1 ×10⁻⁶ cm/s
7,CCO[C@@H]1OC(=O)C[C@@H]1NC(=O)[C@@H]1CCCN2C(=O)CC[C@H](NC(=O)c3nccc4ccccc34)C(=O)N12,< 1 ×10⁻⁶ cm/s
8,N#Cc1ccc(C(=O)N2CCC3(CC2)N=C(N)c2c(F)ccc(F)c2N3)cn1,4 ×10⁻⁶ cm/s
9,Cn1cc(C2=C(c3coc4ccccc34)C(=O)NC2=O)c2cc(Br)ccc21,3 ×10⁻⁶ cm/s
10,O=C(NCCCO)c1ccc(-c2ncc3cnc(-c4cccc(F)c4)cn23)cc1,46 ×10⁻⁶ cm/s
11,N=c1c2c(-c3ccccc3)cn(Cc3ccccc3)c2ncn1CCN,131 ×10⁻⁶ cm/s
12,NCc1ccccc1CC(=O)N[C@@H]1C(=O)N2C(C(=O)O)=C(CSc3nnnn3CC(=O)O)CS[C@H]12,< 1 ×10⁻⁶ cm/s
13,CO[C@@]1(NC(=O)C(C(=O)O)c2ccc(O)cc2)C(=O)N2C(C(=O)O)=C(CSc3nnnn3C)CO[C@@H]21 (some centres undefined),< 1 ×10⁻⁶ cm/s
14,CC1=C2C[C@H]3[C@@H](CC[C@@H]4C[C@H](NS(C)(=O)=O)CC[C@@]43C)[C@@H]2CC[C@@]2(C1)O[C@@H]1C[C@H](C)CN[C@H]1[C@H]2C,132 ×10⁻⁶ cm/s
15,O=C(NCC1(N2CCN(c3ccccc3)CC2)CCOCC1)c1cccnc1Sc1ccccc1,207 ×10⁻⁶ cm/s
16,NC(=O)c1cccc(-c2cc(Nc3ccc(OC(F)(F)F)cc3)ncn2)c1,94.4 ×10⁻⁶ cm/s
17,C/C(=C(\CCOC(=O)C(C)C)SS/C(CCOC(=O)C(C)C)=C(/C)N(C=O)Cc1cnc(C)nc1N)N(C=O)Cc1cnc(C)nc1N,3 ×10⁻⁶ cm/s
18,O=C(Nc1ccc2[nH]c(=O)oc2c1)C(=O)N1CCC(Cc2ccc(F)cc2)CC1,207 ×10⁻⁶ cm/s
19,CC[C@@H](c1ccc(F)c(F)c1)n1c(C(=O)OC)c(-c2ccno2)[nH]c1=S,195 ×10⁻⁶ cm/s
20,COCC1=C(C(=O)O)N2C(=O)[C@@H](NC(=O)/C(=N\OC)c3csc(N)n3)[C@H]2SC1,< 1 ×10⁻⁶ cm/s
21,N[C@@H](C(=O)N[C@@H]1C(=O)N2C(C(=O)O)=C(Cl)CC[C@H]12)c1ccccc1,< 1 ×10⁻⁶ cm/s
22,O=C1/C(=C\c2ccccc2)C[C@@]2(O)[C@H]3Cc4ccc(O)c5c4[C@@]2(CCN3CC2CC2)[C@@H]1O5,158 ×10⁻⁶ cm/s
23,c1ccc(CNCCNCc2ccccc2)cc1,107 ×10⁻⁶ cm/s

row,SMILES,Papp
1,COc1c(C)cnc(Cn2cnc3c(Cl)nc(N)nc32)c1C,3.17 ×10⁻⁶ cm/s
2,COCCn1cnc2c(c(-c3ccccc3)c(-c3ccccc3)n2Cc2ccc(OC)cc2)c1=N,231 ×10⁻⁶ cm/s
3,CC1NC(C(=O)O)Cc2c1[nH]c1ccccc21 (centres undefined),< 1 ×10⁻⁶ cm/s
4,CCCCC/C=C/C(=O)CCc1ccc(O)c(OC)c1,187 ×10⁻⁶ cm/s
5,OC[C@H]1O[C@@H](n2cnc3c(NCc4ccc(O)cc4)ncnc32)[C@H](O)[C@@H]1O,< 1 ×10⁻⁶ cm/s
6,CC(=O)N1CCN(C(=O)c2ccc(-c3ncc4cnc(-c5cccc(F)c5)cn34)cc2)CC1,< 1 ×10⁻⁶ cm/s
7,O=C(NC1CCC(O)CC1)c1ccc(-c2ncc3cnc(-c4ccccc4)cn23)cc1 (centres undefined),35 ×10⁻⁶ cm/s
8,N=c1c2c(-c3ccccc3)cn(Cc3ccccc3)c2ncn1[C@H](CO)Cc1ccccc1,22 ×10⁻⁶ cm/s
9,C[C@@]12CCCCC[C@@H](Cc3ccc(O)cc31)[C@H]2N,74 ×10⁻⁶ cm/s
10,CON(C)Cc1ccc(O)c2c1C[C@H]1C[C@H]3[C@H](N(C)C)C(=O)C(C(N)=O)=C(O)[C@@]3(O)C(=O)C1=C2O,2 ×10⁻⁶ cm/s
11,C=CC1=C(C(=O)O)N2C(=O)[C@@H](NC(=O)/C(=N\OCC(=O)O)c3csc(N)n3)[C@H]2SC1,2 ×10⁻⁶ cm/s
12,CN(C)CCn1cnc2c(c(-c3ccccc3)c(-c3ccccc3)n2Cc2ccccc2)c1=N,76 ×10⁻⁶ cm/s
13,O=C(NO)c1cnc(NC2(c3ccccc3)CC2)nc1,2 ×10⁻⁶ cm/s
14,O=C(O)C1CN(Cc2ccc(-c3nc4cc(Cc5ccccc5F)ccc4s3)c(F)c2)C1,> 300 ×10⁻⁶ cm/s
15,CCCN(CCC)C1CCc2cccc(O)c2C1 (centres undefined),88 ×10⁻⁶ cm/s
16,CCc1ccc(C2C(C(=O)Nc3ccccc3OC)=C(C)Nc3c(C(=O)Nc4ccc(C)cc4)cnn32)cc1 (centres undefined),26 ×10⁻⁶ cm/s
17,N=c1c2c(-c3ccccc3)c(-c3ccccc3)n(Cc3ccccc3)c2ncn1CCNc1ccncc1,90 ×10⁻⁶ cm/s
18,Cc1[nH]c(/C=C2\C(=O)Nc3ccc(F)cc32)c(C)c1C(=O)NC[C@H](O)CN1CCOCC1,42 ×10⁻⁶ cm/s
19,O=C(O)C[C@H]1CCc2c1[nH]c1ccc(OCc3ccc(C4CCCC4)c(C(F)(F)F)c3)cc21,46 ×10⁻⁶ cm/s
20,Cc1cccc(C#Cc2cc(F)cc(C#N)c2)n1,209 ×10⁻⁶ cm/s
21,N=c1c2c(-c3ccccc3)c(-c3ccccc3)n(Cc3ccccc3)c2ncn1C1CCC(O)CC1 (centres undefined),150 ×10⁻⁶ cm/s
22,O=C(CBr)N1CC([N+](=O)[O-])([N+](=O)[O-])C1,< 1 ×10⁻⁶ cm/s
23,CO/N=C(/C(=O)N[C@@H]1C(=O)N2C(C(=O)O)=C(COC(N)=O)CS[C@H]12)c1ccco1,2 ×10⁻⁶ cm/s

row,SMILES,Papp
1,C=CC1=C(C(=O)O)N2C(=O)[C@@H](NC(=O)/C(=N/OCC(=O)O)c3csc(N)n3)[C@H]2SC1,4 ×10⁻⁶ cm/s
2,CC1CN(c2cc3c(cc2F)c(=O)c(C(=O)O)cn3-c2ccc(F)cc2F)CCN1 (centres undefined),5 ×10⁻⁶ cm/s
3,C[C@@H]1C[C@@H](O)[C@]2(O)O[C@@H]3C[C@@]4(C=O)C(CC[C@@H]5C4CC[C@]4(C)[C@@H](C6=CC(=O)OC6)CC[C@]54O)C[C@H]3O[C@@H]2O1 (some centres undefined),< 1 ×10⁻⁶ cm/s
4,CCN(CC)CCNC(=O)c1c(C)[nH]c(/C=C2\C(=O)Nc3ccc(F)cc32)c1C,56 ×10⁻⁶ cm/s
5,O=C(c1ccc(-c2ncc3cnc(-c4ccccc4)cn23)cc1)N1CCS(=O)(=O)CC1,20 ×10⁻⁶ cm/s
6,"Cc1c2oc3c(C)ccc(C(=O)N[C@@H]4C(=O)N[C@H](C(C)C)C(=O)N5CCC[C@H]5C(=O)N(C)CC(=O)N(C)[C@@H](C(C)C)C(=O)O[C@@H]4C)c3nc-2c(C(=O)N[C@@H]2C(=O)N[C@H](C(C)C)C(=O)N3CCC[C@H]3C(=O)N(C)CC(=O)N(C)[C@@H](C(C)C)C(=O)O[C@@H]2C)c(N)c1=O (I: T[dV]P[Sar][NMeV] / II: T[dV]P[Sar][NMeV]; ester I:1-I:C, II:1-II:C; linker I:N-II:N via Actinocin(9to1))",6 ×10⁻⁶ cm/s and 13 ×10⁻⁶ cm/s
7,CC(C)C[C@@H](C(=O)N[C@@H](Cc1ccc(OCc2ccccc2)cc1)C(=O)NC(C)(C)C)N(C)Cc1ccc(C(C)(C)C)cc1,> 300 ×10⁻⁶ cm/s
8,Cc1ccccc1NC(=O)Nc1ccc(CC(=O)N(C)[C@@H](CC(C)C)C(=O)NCC[C@H](NC(=O)[C@@H]2CCCN2S(=O)(=O)c2cc(Cl)cc(Cl)c2)C(=O)O)cc1,5 ×10⁻⁶ cm/s
9,Nc1ccc(/C=C/C(=O)NCc2cc3cc(-c4ccc(C(=O)N5CCC(F)(F)CC5)cc4)cc(-c4ccc(F)cc4)c3o2)cn1,< 1 ×10⁻⁶ cm/s
10,O=C(N[C@@H](CO)[C@H](O)c1ccc([N+](=O)[O-])cc1)C(Cl)Cl,3 ×10⁻⁶ cm/s
11,O=C1c2c(O)ccc(O)c2C(=O)c2c(NCCNCCO)ccc(NCCNCCO)c21,19 ×10⁻⁶ cm/s
12,COCCNC(=O)c1ccc(-c2ncc3cnc(-c4cccc(F)c4)cn23)cc1,95 ×10⁻⁶ cm/s
13,O=S(=O)(Nc1cc(Cl)c(Oc2cnc3ccccc3c2)c(Cl)c1)c1ccc(Cl)cc1Cl,24 ×10⁻⁶ cm/s
14,CSc1nc(N)cc(Oc2ccc(-c3nc(Nc4cccc(C(F)(F)F)c4)n[nH]3)cc2)n1,53.8 ×10⁻⁶ cm/s
15,CC(C)[C@]12O[C@H]1[C@@H]1O[C@]13[C@]1(O[C@H]1C[C@H]1C4=C(CC[C@@]13C)C(=O)OC4)[C@@H]2O,< 1 ×10⁻⁶ cm/s
16,NC(=O)c1cccc(-c2cc(O)cc(OC(=O)NC3CCCCC3)c2)c1,6 ×10⁻⁶ cm/s
17,CN(C)c1cc2c(cc1Sc1nc3c(N)nccc3n1CCNCC(C)(C)C)OCO2,20 ×10⁻⁶ cm/s
18,Cn1nnnc1Sc1ncnc2scc(-c3ccc(C(F)(F)F)cc3)c12,> 300 ×10⁻⁶ cm/s
19,CCOc1ccc(-c2nn3ncccc3c2-c2ccc(S(C)(=O)=O)cc2)cc1,111 ×10⁻⁶ cm/s
20,Cc1cc2c(C(N)=O)cccc2n1-c1nc2c(c(NCc3ccccc3)n1)COCC2,90 ×10⁻⁶ cm/s
21,COc1ccc(-c2c(Cl)ncn2-c2ccc(S(N)(=O)=O)cc2)cc1F,78 ×10⁻⁶ cm/s
22,N=c1c2c(-c3ccccc3)cn(Cc3ccccc3)c2ncn1Cc1ccco1,226 ×10⁻⁶ cm/s
23,CCOC(=O)[C@H](CCc1ccccc1)N[C@@H](C)C(=O)N1C(=O)N(C)C[C@H]1C(=O)O,< 1 ×10⁻⁶ cm/s

row,SMILES,Papp
1,CC(C)CN(CC(=O)N(CCCN1CCCC1=O)CC(N)=O)C(=O)CNCCc1ccccc1F,< 1 ×10⁻⁶ cm/s
2,CN(C)CC1CCOC1(c1ccccc1)c1ccccc1 (centres undefined),47 ×10⁻⁶ cm/s
3,CC1(C)S[C@@H]2[C@H](NC(=O)C3(N)CCCCC3)C(=O)N2[C@H]1C(=O)O,54 ×10⁻⁶ cm/s
4,CCCN(CCC)C1CCc2ccc(O)cc2C1 (centres undefined),26 ×10⁻⁶ cm/s
5,O=C(NCCc1cnc[nH]1)c1ccc(-c2ncc3cnc(-c4cccc(F)c4)cn23)cc1,< 1 ×10⁻⁶ cm/s
6,O=C1NC(=O)C(c2ccccc2)(c2ccccc2)N1,42 ×10⁻⁶ cm/s
7,Cn1c2cc(C=O)sc2c2cnn(Cc3ccccc3F)c(=O)c21,270 ×10⁻⁶ cm/s
8,COC(=O)C[C@@H](C(=O)OC)n1cnc2c(c(-c3ccccc3)cn2Cc2ccccc2)c1=N,26 ×10⁻⁶ cm/s
9,CC(C)C[C@H](NC(=O)CNC(=O)c1cc(Cl)ccc1Cl)B1OC(=O)C(CC(=O)O)(CC(=O)O)O1,< 1 ×10⁻⁶ cm/s
10,CC/C=C(\C(=O)N[C@@H]1C(=O)N2C(C(=O)OCOC(=O)C(C)(C)C)=C(COC(N)=O)CS[C@H]12)c1csc(N)n1,< 1 ×10⁻⁶ cm/s
11,CCNC(=O)c1noc(-c2cc(C(C)C)c(O)cc2O)c1-c1ccc(CN2CCOCC2)cc1,117 ×10⁻⁶ cm/s
12,Cn1c2cc(S(C)=O)sc2c2cnn(Cc3ccccc3F)c(=O)c21 (centres undefined),49 ×10⁻⁶ cm/s
13,Nc1ncnc2c1ncn2[C@H]1O[C@@H](CSCC[C@@H](N)C(=O)O)[C@H](O)[C@@H]1O,< 1 ×10⁻⁶ cm/s
14,COc1cccc2c1C(=O)c1c(O)c3c(c(O)c1C2=O)C[C@@](O)(C(C)=O)C[C@@H]3O[C@H]1C[C@H](N)[C@H](O)[C@H](C)O1,8 ×10⁻⁶ cm/s
15,CO/N=C(\C(=O)N[C@@H]1C(=O)N2C(C(=O)O)=C(CSc3nc(C)c(CC(=O)O)s3)CS[C@H]12)c1csc(N)n1,< 1 ×10⁻⁶ cm/s
16,COc1cccc(-c2csc3ncnc(Sc4nnnn4C)c23)c1,219 ×10⁻⁶ cm/s
17,N=c1c2c(-c3ccccc3)c(-c3ccccc3)n(Cc3ccccc3)c2ncn1CCCCO,259 ×10⁻⁶ cm/s
18,CCC(=O)O[C@@H](OP(=O)(CCCCc1ccccc1)CC(=O)N1C[C@H](C2CCCCC2)C[C@H]1C(=O)O)C(C)C (some centres undefined),118 ×10⁻⁶ cm/s
19,COc1ccc(Cl)cc1NC(=O)c1sc2nc3c(cc2c1N)N1CCC3CC1,< 1 ×10⁻⁶ cm/s
20,N=c1c2c(-c3ccccc3)c(-c3ccccc3)n(Cc3ccccc3)c2ncn1Cc1ccc2c(c1)OCO2,3 ×10⁻⁶ cm/s
